The NIST ThermoML archive (doi:10.1007/s10765-009-0648-5)

Key:
[1] = 101 kPa, Liquid
[2] = wn = mass fraction of the nth substance listed; settings: 101 kPa, Liquid

CCC[n+]1ccn(C)c1.[Br-] [1-methyl-3-propylimidazolium bromide]
[1]
Settings | mass density [kg/m3] | speed of sound [m/s]
288.15 K | 1323.47 | 1699.3
293.15 K | 1319.84 | 1685
298.15 K | 1316.22 | 1672
303.15 K | 1312.6 | 1659.9
308.15 K | 1308.97 | 1648.3

CCC[n+]1ccn(C)c1.[Br-] [1-methyl-3-propylimidazolium bromide] + C[S+](C)[O-]
[2]
Settings | mass density, 288.15 K [kg/m3] | mass density, 293.15 K [kg/m3] | mass density, 298.15 K [kg/m3] | mass density, 303.15 K [kg/m3] | mass density, 308.15 K [kg/m3] | speed of sound, 288.15 K [m/s] | speed of sound, 293.15 K [m/s] | speed of sound, 298.15 K [m/s] | speed of sound, 303.15 K [m/s] | speed of sound, 308.15 K [m/s]
w1 = 0.0077 | 1107.07 | 1102.06 | 1097.05 | 1092.04 | 1087.03 | 1520.9 | 1504.2 | 1487.3 | 1470.4 | 1453.6
w1 = 0.0102 | 1107.62 | 1102.61 | 1097.6 | 1092.6 | 1087.6 | 1521.5 | 1504.7 | 1487.8 | 1470.9 | 1454.2
w1 = 0.012 | 1108.05 | 1103.04 | 1098.04 | 1093.03 | 1088.03 | 1521.9 | 1505.2 | 1488.3 | 1471.4 | 1454.7
w1 = 0.0159 | 1108.91 | 1103.91 | 1098.91 | 1093.92 | 1088.93 | 1523 | 1506 | 1489.2 | 1472.3 | 1455.7
w1 = 0.0203 | 1109.88 | 1104.88 | 1099.89 | 1094.91 | 1089.93 | 1523.8 | 1507 | 1490.2 | 1473.4 | 1456.7
w1 = 0.0252 | 1110.97 | 1105.98 | 1100.99 | 1096.02 | 1091.04 | 1524.8 | 1507.8 | 1491 | 1474.2 | 1457.6
w1 = 0.0297 | 1111.95 | 1106.98 | 1102 | 1097.03 | 1092.07 | 1525.8 | 1509.1 | 1492.3 | 1475.5 | 1458.9
w1 = 0.0356 | 1113.27 | 1108.3 | 1103.33 | 1098.37 | 1093.42 | 1527 | 1510.4 | 1493.6 | 1476.9 | 1460.3
w1 = 0.0423 | 1114.74 | 1109.78 | 1104.82 | 1099.87 | 1094.93 | 1528.5 | 1511.6 | 1494.9 | 1478.2 | 1461.7
w1 = 0.0502 | 1116.49 | 1111.55 | 1106.6 | 1101.67 | 1096.73 | 1530.2 | 1513.5 | 1496.9 | 1480.2 | 1463.6
w1 = 0.0599 | 1118.62 | 1113.69 | 1108.76 | 1103.84 | 1098.93 | 1532.1 | 1515.3 | 1498.7 | 1482.1 | 1465.7
w1 = 1 | 1323.47 | 1319.84 | 1316.22 | 1312.6 | 1308.97 | 1699.3 | 1685 | 1672 | 1659.9 | 1648.3

CC#N [acetonitrile]
[1]
Settings | mass density [kg/m3] | speed of sound [m/s]
288.15 K | 787.376 | 1319.1
293.15 K | 782.007 | 1299
298.15 K | 776.609 | 1278.8
303.15 K | 771.183 | 1258.5
308.15 K | 765.725 | 1238.4

CC#N [acetonitrile] + CCC[n+]1ccn(C)c1.[Br-]
[2], w2 = 0
Settings | mass density [kg/m3] | speed of sound [m/s]
288.15 K | 787.376 | 1319.1
293.15 K | 782.007 | 1299
298.15 K | 776.609 | 1278.8
303.15 K | 771.183 | 1258.5
308.15 K | 765.725 | 1238.4

C[S+](C)[O-] [dimethyl sulfoxide]
[1]
Settings | mass density [kg/m3] | speed of sound [m/s]
288.15 K | 1105.34 | 1519.1
293.15 K | 1100.31 | 1502.2
298.15 K | 1095.28 | 1485.2
303.15 K | 1090.25 | 1468.3
308.15 K | 1085.23 | 1451.5

C[S+](C)[O-] [dimethyl sulfoxide] + CCC[n+]1ccn(C)c1.[Br-]
[2], w2 = 0
Settings | mass density [kg/m3] | speed of sound [m/s]
288.15 K | 1105.34 | 1519.1
293.15 K | 1100.31 | 1502.2
298.15 K | 1095.28 | 1485.2
303.15 K | 1090.25 | 1468.3
308.15 K | 1085.23 | 1451.5

CN(C)C=O [dimethylformamide]
[1]
Settings | mass density [kg/m3] | speed of sound [m/s]
288.15 K | 953.442 | 1496.6
293.15 K | 948.685 | 1477.3
298.15 K | 943.917 | 1457.8
303.15 K | 939.142 | 1438.4
308.15 K | 934.357 | 1419

CN(C)C=O [dimethylformamide] + CCC[n+]1ccn(C)c1.[Br-]
[2], w2 = 0
Settings | mass density [kg/m3] | speed of sound [m/s]
288.15 K | 953.442 | 1496.6
293.15 K | 948.685 | 1477.3
298.15 K | 943.917 | 1457.8
303.15 K | 939.142 | 1438.4
308.15 K | 934.357 | 1419
